Data reported in a compilation of properties of binary mixtures (doi:10.1016/j.jct.2015.07.015).

Assay: xn = mol fraction of the nth substance listed
Settings: 101 kPa

C=CC[n+]1ccn(C)c1.[Cl-] + O
viscosity [mPa·s]
Settings	298.15 K	303.15 K	313.15 K	323.15 K	328.15 K	333.15 K	343.15 K	353.15 K	363.15 K	373.15 K
x2 = 0.045	1884	1137	–	232	167	124	73	46.2	31.2	22.21
x2 = 0.091	1416	891	392	196	144	–	64.9	41.8	–	20.53
x2 = 0.126	1090	691	–	164	123	92	56.3	–	–	–
x2 = 0.152	887	580	270	147	108	84	51.7	34.3	24	17.6
x2 = 0.193	–	459	221	121	91	71	45	30.4	21.6	–
x2 = 0.267	–	293	151	86	67.1	53.1	35	–	17.7	–
x2 = 0.335	259	–	101	–	48.6	39.3	26.8	19.2	14.26	10.98

CC(=O)[O-].CC[n+]1ccn(C)c1 + O
viscosity [mPa·s]
Settings	298.15 K	303.15 K	313.15 K	323.15 K	333.15 K	343.15 K	353.15 K	363.15 K	373.15 K
x2 = 0.072	124	92	55.4	35.4	24.3	17.63	13.21	–	8.19
x2 = 0.102	119	89	53.6	34.5	23.8	17.23	–	–	8.07
x2 = 0.132	112	–	51.1	–	22.9	16.73	–	–	7.86
x2 = 0.188	100	76	–	30.6	–	15.69	–	9.32	–
x2 = 0.266	–	66	41.8	27.7	–	14.44	11	8.67	6.98
x2 = 0.355	75	58	36.9	24.8	17.7	–	–	8	6.47
